Measurements published in patent US9615577B2, “Herbicidally active cyclic dione compounds, or derivatives therefor, substituted by a phenyl which has an alkynyl-containing substituent” (Syngenta Limited, priority 2012, dated 2017).

Key:
Assay type in all cases: in vivo
[1] = system: Glycine max (GLXMA, soybean); assay: Test 1B glasshouse assay for herbicidal activity, post-emergence; conditions: 360 h; for plant injury at 30 g/ha: 30 g/ha application rate; for plant injury at 125 g/ha: 125 g/ha application rate
In short: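 Soybean sprayed 1 day after sowing (pre-emergence) or at about 12 days (post-emergence) with aqueous active ingredient plus 0.2% v/v X-77 adjuvant. Plants grown at 24/18 °C day/night, 16 h light, 65% humidity. Visual % phytotoxicity (100% = total damage) scored at 20 DAA pre-emergence, 15 DAA post-emergence.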

[2] = system: Setaria faberi (SETFA); assay: as above; conditions: 360 h; for pest or weed control at 30 g/ha: 30 g/ha application rate; for pest or weed control at 125 g/ha: 125 g/ha application rate
In short: (§1)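 Percentage phytotoxicity (100% = total damage, 0% = none) was scored visually 15 days (post-emergence) or 20 days (pre-emergence) after spraying. Plants had been sprayed 1 day or about 12 days after sowing with compound formulated as IF50 and diluted in 0.2% v/v X-77, then grown at 24/18° C. day/night.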

[3] = system: Digitaria sanguinalis (DIGSA); assay: as above; conditions: 360 h; for pest or weed control at 30 g/ha: 30 g/ha application rate; for pest or weed control at 125 g/ha: 125 g/ha application rate
In short: as §1

[4] = system: SORVU (Sorghum bicolor (L.) Moench ssp. Bicolor, or Sorghum vulgare Pers.); assay: as above; conditions: 360 h; for pest or weed control at 30 g/ha: 30 g/ha application rate; for pest or weed control at 125 g/ha: 125 g/ha application rate
In short: as §1

[5] = system: Triticum aestivum (TRZAW, winter wheat); assay: as above; conditions: 360 h; for plant injury at 30 g/ha: 30 g/ha application rate; for plant injury at 125 g/ha: 125 g/ha application rate
In short: (§2)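 Plants grown in soil at 20/16° C day/night, 16 h light, 65% humidity; sprayed after 1 day (pre-emergence) or ~12 days (post-emergence) with formulated compound in 0.2% v/v X-77 adjuvant. Visual % phytotoxicity scored 20 DAA (pre) or 15 DAA (post).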

[6] = system: Beta vulgaris (BEAVA, sugar beet); assay: as above; conditions: 360 h; for plant injury at 30 g/ha: 30 g/ha application rate; for plant injury at 125 g/ha: 125 g/ha application rate
In short: as §2

[7] = system: Brassica napus (BRSNN, rape); assay: as above; conditions: 360 h; for plant injury at 30 g/ha: 30 g/ha application rate; for plant injury at 125 g/ha: 125 g/ha application rate
In short: as §2

[8] = system: Brachiaria plantaginea (BRAPL); assay: Test 1B glasshouse assay for herbicidal activity, pre-emergence; conditions: Urochloa plantaginea, 480 h, 20 DAA, read-out: percentage phytotoxicity BRAPL
In short: as §1

[9] = system: Setaria faberi (SETFA); assay: Test 1A glasshouse assay for herbicidal activity, pre-emergence; conditions: 312 h, evaluated after 13 days, read-out: percentage phytotoxicity SETFA
In short: (§3)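 Pots sprayed 1 day (pre-emergence) or 8 days (post-emergence) after sowing with compound in acetone/water (50:50) containing 0.5% Tween 20. Glasshouse at 24/16 °C day/night, 14 h light, 65% humidity; visual phytotoxicity scored after 13 days on 0–100 scale (100 = total damage).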

[10] = system: Alopecurus myosuroides (ALOMY); assay: as above; conditions: 312 h, evaluated after 13 days, read-out: percentage phytotoxicity ALOMY
In short: as §3

[11] = system: Amaranthus retroflexus (AMARE); assay: as above; conditions: 312 h, evaluated after 13 days, read-out: percentage phytotoxicity AMARE
In short: as §3

[12] = system: Echinochloa crus-galli (ECHCG); assay: as above; conditions: 312 h, evaluated after 13 days, read-out: percentage phytotoxicity ECHCG
In short: as §3

[13] = system: Alopecurus myosuroides (ALOMY); assay: Test 1B glasshouse assay for herbicidal activity, post-emergence; conditions: 360 h; for pest or weed control at 30 g/ha: 30 g/ha application rate; for pest or weed control at 125 g/ha: 125 g/ha application rate
In short: (§4)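 Sow seeds in soil pots; grow 1 day (pre) or roughly 12 days (post) at 20/16 °C day/night. Spray emulsifiable formulation diluted in 0.2% v/v X-77 at set rates. Keep in glasshouse, watering twice daily. Rate damage visually at 20 DAA (pre) or 15 DAA (post).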

[14] = system: Avena fatua (AVEFA); assay: as above; conditions: 360 h; for pest or weed control at 30 g/ha: 30 g/ha application rate; for pest or weed control at 125 g/ha: 125 g/ha application rate
In short: as §4

[15] = system: Lolium perenne (LOLPE); assay: as above; conditions: 360 h; for pest or weed control at 30 g/ha: 30 g/ha application rate; for pest or weed control at 125 g/ha: 125 g/ha application rate
In short: as §4

[16] = system: Amaranthus retroflexus (AMARE); assay: Test 1A glasshouse assay for herbicidal activity, post-emergence; conditions: 312 h, evaluated after 13 days, read-out: percentage phytotoxicity AMARE
In short: as §3

[17] = system: Abutilon theophasti Medik. (ABUTH); assay: as above; conditions: 312 h, evaluated after 13 days, read-out: percentage phytotoxicity ABUTH
In short: as §3

[18] = system: Echinochloa crus-galli (ECHCG); assay: as above; conditions: 312 h, evaluated after 13 days, read-out: percentage phytotoxicity ECHCG
In short: as §3

CC#Cc1cc(C)c(C2C(=O)C3CCC(C3)C2=O)c(OC)c1 (centres unmarked) [Compound A-10]
40%: plant injury at 30 g/ha [7] | pest or weed control at 125 g/ha [14]
100%: pest or weed control at 125 g/ha [2] | pest or weed control at 125 g/ha [3] | pest or weed control at 30 g/ha [4] | pest or weed control at 125 g/ha [4] | pest or weed control at 250 g/ha [9] | pest or weed control at 250 g/ha [10] | pest or weed control at 250 g/ha [12] | pest or weed control at 125 g/ha [13] | pest or weed control at 250 g/ha [18]
90%: pest or weed control at 30 g/ha [3]
20%: plant injury at 125 g/ha [1] | plant injury at 30 g/ha [6] | plant injury at 125 g/ha [6] | pest or weed control at 30 g/ha [14]
80%: pest or weed control at 30 g/ha [2] | plant injury at 125 g/ha [5] | pest or weed control at 125 g/ha ([8]; 125 g/ha) | pest or weed control at 125 g/ha [15] | pest or weed control at 250 g/ha [17]
10%: plant injury at 30 g/ha [1]
60%: plant injury at 30 g/ha [5] | plant injury at 125 g/ha [7] | pest or weed control at 30 g/ha [13]
0%: pest or weed control at 250 g/ha [11]
50%: pest or weed control at 250 g/ha [16]
30%: pest or weed control at 30 g/ha [15]

CC#Cc1cc(Cl)c(C2C(=O)C3CCC(C3)C2=O)c(OC)c1 (centres unmarked) [Compound A-12]
60%: plant injury at 125 g/ha [5] | plant injury at 30 g/ha [7]
100%: pest or weed control at 30 g/ha [3] | pest or weed control at 125 g/ha [3] | pest or weed control at 125 g/ha [4] | pest or weed control at 250 g/ha [8] | pest or weed control at 62.5 g/ha ([9]; 62.5 g/ha) | pest or weed control at 250 g/ha [9] | pest or weed control at 250 g/ha [10] | pest or weed control at 250 g/ha [12] | pest or weed control at 62.5 g/ha ([18]; 62.5 g/ha) | pest or weed control at 250 g/ha [18]
80%: pest or weed control at 125 g/ha [2] | pest or weed control at 30 g/ha [4] | plant injury at 125 g/ha [7]
30%: pest or weed control at 125 g/ha [14]
50 to 60%: pest or weed control at 250 g/ha [17]
0%: plant injury at 30 g/ha [1] | plant injury at 30 g/ha [6] | pest or weed control at 62.5 g/ha ([11]; 62.5 g/ha) | pest or weed control at 250 g/ha [11] | pest or weed control at 30 g/ha [14] | pest or weed control at 30 g/ha [15] | pest or weed control at 62.5 g/ha ([16]; 62.5 g/ha) | pest or weed control at 62.5 g/ha ([17]; 62.5 g/ha)
20%: plant injury at 125 g/ha [6]
0 to 10%: pest or weed control at 250 g/ha [16]
10%: plant injury at 125 g/ha [1] | pest or weed control at 30 g/ha [13]
70%: pest or weed control at 30 g/ha [2] | pest or weed control at 125 g/ha [13] | pest or weed control at 125 g/ha [15]
40%: plant injury at 30 g/ha [5]
90%: pest or weed control at 62.5 g/ha ([10]; 62.5 g/ha) | pest or weed control at 62.5 g/ha ([12]; 62.5 g/ha)

CC#Cc1cc(C)c(C2C(=O)CC(c3ccccn3)CC2=O)c(C)c1 (centres unmarked) [Compound A-13]
30%: plant injury at 125 g/ha [5] | pest or weed control at 125 g/ha [13] | pest or weed control at 30 g/ha ([16]; 30 g/ha)
40%: pest or weed control at 30 g/ha ([17]; 30 g/ha)
70%: plant injury at 125 g/ha [7] | pest or weed control at 30 g/ha ([9]; 30 g/ha) | pest or weed control at 30 g/ha ([10]; 30 g/ha) | pest or weed control at 125 g/ha [15]
100%: pest or weed control at 250 g/ha [9] | pest or weed control at 250 g/ha [10] | pest or weed control at 30 g/ha ([11]; 30 g/ha) | pest or weed control at 30 g/ha ([12]; 30 g/ha) | pest or weed control at 250 g/ha [12] | pest or weed control at 250 g/ha [18]
90%: pest or weed control at 250 g/ha [8]
60%: plant injury at 125 g/ha [1] | pest or weed control at 250 g/ha [16]
20%: plant injury at 125 g/ha [6] | pest or weed control at 125 g/ha [14]
80%: pest or weed control at 125 g/ha [2] | pest or weed control at 125 g/ha [3] | pest or weed control at 125 g/ha [4] | pest or weed control at 250 g/ha [11] | pest or weed control at 250 g/ha [17] | pest or weed control at 30 g/ha ([18]; 30 g/ha)

CC#Cc1cc(C)c(C2=C(OC(=O)OC)CC(c3ccccn3)CC2=O)c(C)c1 (centres unmarked) [Compound A-14]
70%: plant injury at 125 g/ha [1] | plant injury at 125 g/ha [7] | pest or weed control at 250 g/ha [11] | pest or weed control at 30 g/ha [13] | pest or weed control at 30 g/ha [15]
40%: plant injury at 30 g/ha [1] | plant injury at 125 g/ha [6]
30%: plant injury at 30 g/ha [6]
80%: pest or weed control at 30 g/ha [2] | pest or weed control at 30 g/ha [3] | pest or weed control at 30 g/ha [4] | plant injury at 125 g/ha [5] | pest or weed control at 125 g/ha [13] | pest or weed control at 125 g/ha [15] | pest or weed control at 250 g/ha [17]
90%: pest or weed control at 125 g/ha [2] | pest or weed control at 250 g/ha [8]
60%: plant injury at 30 g/ha [5] | plant injury at 30 g/ha [7] | pest or weed control at 125 g/ha [14]
100%: pest or weed control at 125 g/ha [3] | pest or weed control at 125 g/ha [4] | pest or weed control at 250 g/ha [9] | pest or weed control at 250 g/ha [10] | pest or weed control at 250 g/ha [12] | pest or weed control at 250 g/ha [18]
20%: pest or weed control at 30 g/ha [14] | pest or weed control at 250 g/ha [16]
